Source: patent US9708259B2 (Hoffmann-La Roche Inc., priority 2013, dated 2017)
Where a chain is given by its changes, count along the chain named. Read-outs that look alike come from different tables or passages of the source.

What was measured:
human M1 = molecular target: T1, human M1 (Homo sapiens, UniProt P11229); assay: M1 PAM assay (FLIPR intracellular calcium), human M1; format: cell-based
T1 construct: expressed in transfected cells; host or cells: CHO cells
T1 sequence (P11229 1-460): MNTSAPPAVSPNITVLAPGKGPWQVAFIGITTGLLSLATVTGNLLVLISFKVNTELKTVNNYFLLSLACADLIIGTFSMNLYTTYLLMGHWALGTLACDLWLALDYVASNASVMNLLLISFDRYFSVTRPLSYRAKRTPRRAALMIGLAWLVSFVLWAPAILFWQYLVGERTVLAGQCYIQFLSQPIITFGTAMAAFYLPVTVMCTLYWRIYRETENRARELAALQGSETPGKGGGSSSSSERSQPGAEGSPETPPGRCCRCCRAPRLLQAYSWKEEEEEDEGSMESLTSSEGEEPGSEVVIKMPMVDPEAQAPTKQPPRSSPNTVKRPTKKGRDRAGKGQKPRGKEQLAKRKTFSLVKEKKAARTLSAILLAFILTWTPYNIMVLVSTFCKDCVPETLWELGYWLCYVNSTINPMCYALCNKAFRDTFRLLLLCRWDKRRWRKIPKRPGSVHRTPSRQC
Summary of the method: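 CHO cells expressing M1, Fluo-4AM-loaded, in HEPES/probenecid HBSS pH 7.4, 1% DMSO final. Compounds pre-incubated 2 min for agonist activity versus 30 nM acetylcholine control. For PAM activity, acetylcholine EC20 added after the 2 min pre-incubation, then 2 min more before FLIPR intracellular Ca2+ read.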

ratM1 = molecular target: T2, ratM1 (Rattus norvegicus, UniProt P08482); assay: M1 PAM assay (FLIPR intracellular calcium), rat M1; format: cell-based
T2 construct: expressed in transfected cells; host or cells: CHO cells (stated generally for the assay, not specifically for rat M1)
T2 sequence (P08482 1-460): T1 sequence (P11229 1-460) with A5V, T254S, P309S, R320K, A337G, I413V

[1] = CHO human M1 cells, FLIPR Ca2+, with EC20 of acetylcholine, first value of the cell, read-out: hM1 EC50
[2] = rat M1, FLIPR Ca2+, second value of the cell, read-out: ratM1 EC50

SMILES	EC50 (human M1; [1]) [nM]	EC50 (ratM1; [2]) [nM]	EC50 (human M1) [nM]	EC50 (ratM1) [nM]
Cn1cc(-c2ccc(Cn3cc(C(=O)N[C@H]4CCCC[C@]4(C)O)c4c(F)cccc43)c(F)c2)cn1 (racemic) [Example 18, 4-fluoro-1-(2-fluoro-4-(1-methyl-1H-pyrazol-4-yl)benzyl)-N-((1SR,2SR)-2-hydroxy-2-methylcyclohexyl)-1H-indole-3-carboxamide]	61.2	185		
Cn1cc(-c2ccc(Cn3cc(C(=O)NC4CC(F)(F)C4)c4c(F)cccc43)cc2)cn1 [Example 9, N-(3,3-difluorocyclobutyl)-4-fluoro-1-(4-(1-methyl-1H-pyrazol-4-yl)benzyl)-1H-indole-3-carboxamide]	365	411		
COc1ccc(Cn2cc(C(=O)N[C@H]3CCCC[C@@H]3O)c3c(F)cccc32)cc1F [Example 33, 4-fluoro-1-(3-fluoro-4-methoxybenzyl)-N-((1S,2S)-2-hydroxycyclohexyl)-1H-indole-3-carboxamide]			104	222
Cn1ncc2cc(Cn3cc(C(=O)N[C@H]4CCOC[C@@H]4O)c4c(F)cccc43)ccc21 (single isomer, unassigned) [Example 52, 4-fluoro-N-((3R,4S) or (3S,4R)-3-hydroxytetrahydro-2H-pyran-4-yl)-1-((1-methyl-1H-indazol-5-yl)methyl)-1H-indole-3-carboxamide]			17.9	27
Cc1ccc(F)c2c(C(=O)NC3CCOCC3)cn(Cc3ccc(-c4cnn(C)c4)cc3F)c12 [Example 133, 4-fluoro-1-(2-fluoro-4-(1-methyl-1H-pyrazol-4-yl)benzyl)-7-methyl-N-(tetrahydro-2H-pyran-4-yl)-1H-indole-3-carboxamide]	48	84		
Cn1cc(-c2ccc(Cn3cc(C(=O)N[C@@H]4CCCC[C@H]4O)c4c(F)cccc43)c(F)c2)cn1 [Example 2]	39	208		
NC(=O)c1ccc(Cn2cc(C(=O)N[C@H]3CCOC[C@@H]3O)c3c(F)cccc32)cc1 (racemic) [Example 15, 1-(4-carbamoylbenzyl)-4-fluoro-N-((3RS,4SR)-3-hydroxytetrahydro-2H-pyran-4-yl)-1H-indole-3-carboxamide]	12.4	9.61		
Cn1cc(-c2ccc(Cn3nc(C(=O)N[C@H]4CCOC[C@@H]4O)c4c(F)ccc(F)c43)c(F)c2)cn1 [Example 73, 4,7-difluoro-1-(2-fluoro-4-(1-methyl-1H-pyrazol-4-yl)benzyl)-N-((3R,4S)-3-hydroxytetrahydro-2H-pyran-4-yl)-1H-indazole-3-carboxamide]	65.8	94.3		
CNC(=O)c1ccc(Cn2cc(C(=O)NC3CCCC(F)(F)C3)c3c(F)cccc32)cc1F (centres unmarked) [Example 130, N-(3,3-difluorocyclohexyl)-4-fluoro-1-(3-fluoro-4-(methylcarbamoyl)benzyl)-1H-indole-3-carboxamide]	34	58		
N#Cc1ccc(Cn2cc(C(=O)N[C@H]3CCOC[C@@H]3O)c3c(F)cccc32)cc1 (racemic) [Example 16, 1-(4-cyanobenzyl)-4-fluoro-N-((3RS,4SR)-3-hydroxytetrahydro-2H-pyran-4-yl)-1H-indole-3-carboxamide]			237	337
O=C(N[C@H]1CCCC[C@@H]1O)c1cn(Cc2ccc(-c3ncccn3)cc2)c2cccc(F)c12 [Example 135, 4-fluoro-N-((1S,2S)-2-hydroxycyclohexyl)-1-(4-(pyrimidin-2-yl)benzyl)-1H-indole-3-carboxamide]	97	384		
Cn1cc(-c2ccc(Cn3cc(C(=O)NC4CCCOC4)c4c(F)cccc43)cc2)cn1 (centres unmarked) [Example 12, 4-fluoro-1-(4-(1-methyl-1H-pyrazol-4-yl)benzyl)-N-(tetrahydro-2H-pyran-3-yl)-1H-indole-3-carboxamide]	129	398		
Cn1cc(-c2ccc(Cn3cc(C(=O)NC4CCOCC4)c4c(F)ccc(F)c43)c(F)c2)cn1 [Example 96, 4,7-difluoro-1-(2-fluoro-4-(1-methyl-1H-pyrazol-4-yl)benzyl)-N-(tetrahydro-2H-pyran-4-yl)-1H-indole-3-carboxamide]	28	73		
Cn1cc(-c2ccc(Cn3cc(C(=O)N[C@@H]4CCCC(F)(F)[C@H]4O)c4c(F)cccc43)c(F)c2)cn1 [Example 102, N-((1R,2S)-3,3-difluoro-2-hydroxycyclohexyl)-4-fluoro-1-(2-fluoro-4-(1-methyl-1H-pyrazol-4-yl)benzyl)-1H-indole-3-carboxamide]	29	88		
COc1ccc(F)c2c(C(=O)NC3CCOCC3)cn(Cc3ccc(-c4cnn(C)c4)cc3)c12 [Example 151, 4-fluoro-7-methoxy-1-(4-(1-methyl-1H-pyrazol-4-yl)benzyl)-N-(tetrahydro-2H-pyran-4-yl)-1H-indole-3-carboxamide]	194	299		
Cc1ccn(-c2ccc(Cn3cc(C(=O)N[C@H]4CCCC[C@@H]4O)c4c(F)cccc43)cc2)n1 [Example 50, 4-fluoro-N-((1S,2S)-2-hydroxycyclohexyl)-1-(4-(3-methyl-1H-pyrazol-1-yl)benzyl)-1H-indole-3-carboxamide]	18.3	13.9		
CNC(=O)c1ccc(Cn2cc(C(=O)NC3CCC3)c3c(F)cccc32)cc1 [Example 112, N-cyclobutyl-4-fluoro-1-[[4-(methylcarbamoyl)phenyl]methyl]indole-3-carboxamide]	72	168		
Cc1cn(-c2ccc(Cn3cc(C(=O)N[C@H]4CCCC[C@@H]4O)c4c(F)cccc43)cc2)cn1 [Example 36, 4-fluoro-N-((1S,2S)-2-hydroxycyclohexyl)-1-(4-(4-methyl-1H-imidazol-1-yl)benzyl)-1H-indole-3-carboxamide]	15.5	25.9		
O=C(NC1CC1)c1ccc(Cn2cc(C(=O)N[C@H]3CCCC[C@@H]3O)c3c(F)cccc32)cc1 [Example 146, 1-(4-(cyclopropylcarbamoyl)benzyl)-4-fluoro-N-((1S,2S)-2-hydroxycyclohexyl)-1H-indole-3-carboxamide]	2	5		
COc1ccc(F)c2c(C(=O)N[C@H]3CCOC[C@@H]3O)cn(Cc3ccc(-c4cnn(C)c4)cc3)c12 [Example 150, 4-fluoro-N-((3R,4S)-3-hydroxytetrahydro-2H-pyran-4-yl)-7-methoxy-1-(4-(1-methyl-1H-pyrazol-4-yl)benzyl)-1H-indole-3-carboxamide]	50	34		
O=C(N[C@H]1CCCC[C@@H]1O)c1cn(Cc2ccc(-c3nc[nH]n3)cc2)c2cccc(F)c12 [Example 156, 1-(4-(1H-1,2,4-triazol-3-yl)benzyl)-4-fluoro-N-((1S,2S)-2-hydroxycyclohexyl)-1H-indole-3-carboxamide]	3	10		
Cn1cc(-c2ccc(Cn3cc(C(=O)NC4CCOCC4O)c4c(F)c(F)c(F)c(F)c43)cc2)cn1 (single isomer, unassigned) [Example 62, 4,5,6,7-Tetrafluoro-N-((3S,4R) or (3R,4S))-3-hydroxytetrahydro-2H-pyran-4-yl)-1-(4-(1-methyl-1H-pyrazol-4-yl)benzyl)-1H-indole-3-carboxamide]	433	563		
Cn1cc(-c2ccc(Cn3cc(C(=O)N[C@H]4CCOC[C@@H]4O)c4c(F)ccc(C5CC5)c43)cc2)cn1 [Example 106, 7-cyclopropyl-4-fluoro-N-((3R,4S)-3-hydroxytetrahydro-2H-pyran-4-yl)-1-(4-(1-methyl-1H-pyrazol-4-yl)benzyl)-1H-indole-3-carboxamide]	189	187		
Cc1ccn(-c2ccc(Cn3cc(C(=O)N[C@H]4CCCC[C@@H]4O)c4c(F)c(F)ccc43)cc2)n1 [Example 61, 4,5-difluoro-N-((1S,2S)-2-hydroxycyclohexyl)-1-(4-(3-methyl-1H-pyrazol-1-yl)benzyl)-1H-indole-3-carboxamide]	343	515		
O=C(N[C@H]1CCCC[C@@H]1O)c1cn(Cc2ccc(-c3cccnc3)cc2)c2cccc(F)c12 [Example 159, 4-Fluoro-N-((1S,2S)-2-hydroxycyclohexyl)-1-(4-(pyridin-3-yl)benzyl)-1H-indole-3-carboxamide]	20	47		
